In brackets after ≈: the same amount, converted by molar mass. Several values for one entry are separate records, joined by “and”; a condition that tells them apart may be missing. Equal entries are not always repeated. Values belong to the compound of their own block, whether it stands above or below them.
How the values were obtained:
Experiment in all cases: ≥ marks a high value that may be exact or a test limit, other limits are often not marked, values filed in µg/mL are converted to µM
[1] = test system: Bacillus subtilis IFO 3513
[2] = test system: Staphylococcus aureus IFO 12732
[3] = test system: Escherichia coli IFO 12734
Fusarium oxysporum = test system: Fusarium oxysporum
Escherichia coli SBS 363 = test system: Escherichia coli SBS 363
Botrytis cinerea = test system: Botrytis cinerea
[4] = test system: Micrococcus luteus CIP 5345
[5] = test system: Pseudomonas aeruginosa ATCC 27853
[6] = test system: Candida albicans ATCC 64550
[7] = test system: Escherichia coli ATCC 25922
[8] = test system: Staphylococcus aureus ATCC 25923
[9] = test system: Staphylococcus aureus ATCC 25929
[10] = test system: Bacillus subtilis CMCC 63501
[11] = test system: Staphylococcus pseudintermedius
[12] = test system: Aeromonas veronii biovar sobria BJCP-5
[13] = test system: Salmonella enterica subsp. enterica serovar Pullorum C79-13
[14] = test system: Salmonella enterica subsp. enterica serovar Typhimurium C77-31
[15] = test system: Staphylococcus epidermidis ATCC 12228
[16] = test system: Enterococcus faecalis ATCC 29212
[17] = test system: Salmonella enterica subsp. enterica serovar Enteritidis
[18] = test system: Staphylococcus aureus ATCC 29213
[19] = test system: Candida albicans ATCC 10231
Proteus vulgaris = test system: Proteus vulgaris
[20] = test system: Bacillus megaterium KCTC 1096
[21] = test system: Escherichia coli KCTC 1682
[22] = test system: Staphylococcus aureus KCTC 1621
[23] = test system: Candida albicans KCTC 7121
[24] = test system: Bacillus subtilis KCTC 1918
[25] = test system: Trichosporon beigelii KCTC 7251
[26] = test system: Fusarium oxysporum KCTC 6084
[27] = test system: Aspergillus flavus KCTC 7375
[28] = test system: Pseudomonas aeruginosa KCTC 1637
[29] = test system: Salmonella enterica subsp. enterica serovar Typhi ATCC 5784
Escherichia coli O157:H7 = test system: Escherichia coli O157:H7
Bacillus megaterium = test system: Bacillus megaterium
[30] = test system: Staphylococcus epidermidis
[31] = test system: Salmonella enterica subsp. enterica serovar Typhi DMST 22842
[32] = test system: Salmonella enterica subsp. enterica serovar Typhi
Vibrio cholerae non-O139 = test system: Vibrio cholerae non-O139
[33] = test system: Lysinibacillus sphaericus TISTR 678
Vibrio cholerae non-O1 = test system: Vibrio cholerae non-O1

Structure (SMILES): CC[C@H](C)[C@H](N)C(=O)N[C@@H](CC(C)C)C(=O)N1CCC[C@H]1C(=O)N[C@@H](Cc1c[nH]c2ccccc12)C(=O)N[C@@H](CCCCN)C(=O)N[C@@H](Cc1c[nH]c2ccccc12)C(=O)N1CCC[C@H]1C(=O)N[C@@H](Cc1c[nH]c2ccccc12)C(=O)N[C@@H](CC(C)C)C(=O)N1CCC[C@H]1C(=O)N[C@@H](CC(C)C)C(=O)N[C@@H](CCCN=C(N)N)C(=O)N[C@@H](CCCN=C(N)N)C(N)=O [ILPWKWPWLPLRR]
MIC [1]: 28.4 µM (≈ 50 µg/mL) | MIC [2]: 14.2 µM (≈ 25 µg/mL) | MIC [3]: ≥ 56.8 µM

Structure (SMILES): CC(C)C[C@H](NC(=O)[C@H](Cc1c[nH]c2ccccc12)NC(=O)[C@@H](N)CCCCN)C(=O)N[C@@H](CCCN=C(N)N)C(=O)N[C@@H](CCCN=C(N)N)C(=O)N[C@H](C(=O)N[C@@H](Cc1c[nH]c2ccccc12)C(=O)N[C@@H](CCCN=C(N)N)C(=O)N[C@@H](Cc1c[nH]c2ccccc12)C(=O)N[C@@H](Cc1c[nH]c2ccccc12)C(=O)N[C@@H](CCCN=C(N)N)C(N)=O)C(C)C [KWLRRVWRWWR]
MIC [5]: 20 µM (≈ 34.5 µg/mL) | MIC [6]: ≥ 100 µM | MIC [7]: 15 µM (≈ 25.9 µg/mL) | MIC [8]: 2.5 µM (≈ 4.32 µg/mL)

Structure (SMILES): CC[C@H](C)[C@H](NC(=O)[C@@H]1CCCN1C(=O)[C@@H](N)CO)C(=O)N[C@@H](Cc1cnc[nH]1)C(=O)N[C@@H](C)C(=O)N[C@H]1CSSC[C@@H]2NC(=O)[C@H](CO)NC(=O)[C@H](CCCCN)NC(=O)[C@H](CC(C)C)NC(=O)CNC(=O)[C@H](CO)NC(=O)CNC(=O)[C@@H]3CSSC[C@H](NC(=O)[C@H](C(C)C)NC(=O)CNC(=O)[C@H](CCCN=C(N)N)NC(=O)[C@H](CCC(N)=O)NC(=O)[C@H](Cc4ccc(O)cc4)NC(=O)[C@H](CCCN=C(N)N)NC1=O)C(=O)N[C@@H]([C@@H](C)CC)C(=O)N1CCC[C@H]1C(=O)NCC(=O)N1CCC[C@H]1C(=O)N[C@@H](CSSC[C@@H](C(=O)N[C@H](C(=O)N[C@@H](CCCN=C(N)N)C(=O)N[C@@H](CC(N)=O)C(=O)N[C@@H](CCCN=C(N)N)C(=O)N[C@@H](Cc1c[nH]c4ccccc14)C(=O)N[C@@H](C)C(=O)O)C(C)C)NC2=O)C(=O)N[C@@H](CCCN=C(N)N)C(=O)N[C@@H](Cc1c[nH]c2ccccc12)C(=O)N1CCC[C@H]1C(=O)N[C@@H](Cc1ccc(O)cc1)C(=O)N[C@@H](Cc1ccc(O)cc1)C(=O)N[C@@H](CCCN=C(N)N)C(=O)N[C@@H](C(C)C)C(=O)NCC(=O)N[C@@H](CO)C(=O)N3 [SPIHACRYQRGVCIPGPCRWPYYRVGSCGSGLKSCCVRNRWA]
MIC [10]: 8 µM (≈ 37.9 µg/mL) | MIC [11]: ≥ 54 µM | MIC [12]: 0.5 µM (≈ 2.37 µg/mL) | MIC [13]: 2.23 µM (≈ 10.6 µg/mL) | MIC [14]: 2.23 µM (≈ 10.6 µg/mL) | MIC [15]: 2.23 µM (≈ 10.6 µg/mL) | MIC [16]: 2 µM (≈ 9.48 µg/mL) | MIC [17]: 4 µM (≈ 19 µg/mL) | MIC [18]: 54 µM and > 27 µM | MIC [19]: 16 µM (≈ 75.8 µg/mL) | MIC [8]: 0.569 µM (≈ 2.7 µg/mL)

Structure (SMILES): CC(C)[C@H](NC(=O)CNC(=O)[C@@H](N)CC(N)=O)C(=O)N[C@@H](CCC(N)=O)C(=O)N1CCC[C@H]1C(=O)N[C@@H](CCCCN)C(=O)N[C@@H](Cc1ccc(O)cc1)C(=O)O [NGVQPKY]
MIC [29]: ≥ 64 µM | MIC [5]: > 248 µM | MIC (Escherichia coli O157:H7): ≥ 64 µM | MIC (Bacillus megaterium): ≥ 64 µM | MIC [30]: 31.1 µM (≈ 25 µg/mL) | MIC [31]: ≥ 248 µM | MIC [15]: > 248 µM | MIC [32]: 31.1 µM and ≥ 64 µM | MIC (Vibrio cholerae non-O139): ≥ 248 µM | MIC [33]: ≥ 64 µM | MIC (Vibrio cholerae non-O1): ≥ 248 µM | MIC [7]: > 248 µM | MIC [8]: > 248 µM

More lines, now with the values ahead:

MIC (Fusarium oxysporum): ≥ 200 µM | MIC (Escherichia coli SBS 363): ≥ 200 µM | MIC (Botrytis cinerea): ≥ 200 µM | MIC [4]: ≥ 200 µM
Structure (SMILES): CC[C@H](C)[C@H](N)C(=O)N[C@@H](CC(C)C)C(=O)N[C@@H](CCC(=O)O)C(=O)N[C@@H](CC(N)=O)C(=O)N[C@@H](CC(C)C)C(=O)N[C@@H](CC(C)C)C(=O)N[C@@H](C)C(=O)N[C@@H](CCCN=C(N)N)C(=O)N[C@@H](CO)C(=O)N[C@H](C(=O)N[C@@H](CC(N)=O)C(=O)N[C@@H](CCC(=O)O)C(=O)N[C@@H](CC(=O)O)C(=O)N[C@@H](CCCN=C(N)N)C(=O)N[C@@H](CCC(=O)O)C(=O)NCC(=O)N[C@@H](CO)C(=O)N[C@H](C(=O)N[C@@H](Cc1ccccc1)C(=O)O)[C@@H](C)CC)[C@@H](C)O [ILENLLARSTNEDREGSIF]

MIC [9]: 17 µM (≈ 32.2 µg/mL) | MIC [7]: 17 µM (≈ 32.2 µg/mL)
Structure (SMILES): CC(C)C[C@H](NC(=O)CNC(=O)[C@H](C)NC(=O)[C@H](CC(C)C)NC(=O)[C@H](CC(C)C)NC(=O)[C@@H](NC(=O)[C@H](CCCCN)NC(=O)[C@H](CC(C)C)NC(=O)[C@H](CC(C)C)NC(=O)[C@H](C)NC(=O)[C@@H]1CCCN1C(=O)[C@H](CC(C)C)NC(=O)[C@H](C)NC(=O)[C@@H](NC(=O)CNC(=O)[C@H](CC(C)C)NC(=O)[C@@H](N)CCCN=C(N)N)[C@@H](C)O)[C@@H](C)O)C(=O)N[C@@H](CC(N)=O)C(=O)NCC(N)=O [RLGTALPALLKTLLAGLNG]

MIC (Proteus vulgaris): 1.56 µM (≈ 3.16 µg/mL) | MIC [20]: 3.12 µM (≈ 6.33 µg/mL) | MIC [21]: 4.42 µM (≈ 8.95 µg/mL) | MIC [22]: 3.12 µM (≈ 6.33 µg/mL) | MIC [23]: ≥ 50 µM | MIC [24]: 1.56 µM (≈ 3.16 µg/mL) | MIC [25]: ≥ 50 µM | MIC [26]: ≥ 50 µM | MIC [27]: ≥ 50 µM | MIC [28]: 6.25 µM (≈ 12.7 µg/mL)
Structure (SMILES): CC[C@H](C)[C@H](NC(=O)[C@H](CCCCN)NC(=O)[C@H](CCCCN)NC(=O)[C@H](Cc1ccccc1)NC(=O)[C@H](CC(C)C)NC(=O)[C@H](CCCCN)NC(=O)[C@H](Cc1c[nH]c2ccccc12)NC(=O)[C@@H](N)CCCCN)C(=O)N1CCC[C@H]1C(=O)N[C@@H](CCCCN)C(=O)N[C@@H](Cc1ccccc1)C(=O)N[C@@H](CC(C)C)C(=O)N[C@@H](Cc1cnc[nH]1)C(=O)N[C@@H](CC(C)C)C(=O)N[C@@H](C)C(=O)N[C@@H](CCCCN)C(N)=O [KWKLFKKIPKFLHLAK]
